Test results: PubChem BioAssay AID1996
≈ marks a conversion by molar mass, not a printed value.

Conditions: buffer; pH 7.4; 200.0 µM

SMILES | solubility kinetic [µg/mL]
CN(C)S(=O)(=O)c1ccc(C(=O)OCC2COC(C)(C)O2)cc1 (configuration not stated) | 48.6 (≈ 142 µM)
COc1ccc(/C=C2\CCc3ccccc3C2=O)cc1CN1CCOCC1 | 23.9 (≈ 65.8 µM)
CCOc1ccccc1NC(=O)c1ccc(OCC(=O)N2CCOCC2)c(OC)c1 | > 62.2
COc1ccc(-c2oc(=O)n(C)c2-c2ccc(OC)cc2)cc1 | 17.3 (≈ 55.6 µM)
O=C(COc1ccc(Br)cc1)OCC(=O)N1CCOCC1 | > 53.7
CCC(=O)c1ccc(OCC(=O)NCc2ccccc2CN2CCCC2)cc1 | > 57.1
Cc1cc(=O)oc2cc(Oc3ncccc3[N+](=O)[O-])ccc12 | 2 (≈ 6.71 µM)
CC1CC(C)CN(C(=O)Cc2c(C(=O)O)[nH]c3ccc(Cl)cc23)C1 (configuration not stated) | > 52.3
Cc1ccc(OC(=O)CCC(=O)Nc2ccc(C(N)=O)cc2)cc1 | > 49
COc1ccc(CCC(=O)OCC(=O)Nc2sccc2C#N)cc1 | 22.9 (≈ 66.5 µM)
O=[N+]([O-])c1ccc(S(=O)(=O)NCC2CC3CCC2C3)cc1 (configuration not stated) | 5.5 (≈ 17.7 µM)
Cc1ccc(Cn2c(C)nc3ccc([N+](=O)[O-])cc3c2=O)cc1 | 1.5 (≈ 4.85 µM)
CCCCCc1nnc(NC(=O)c2ccc(=O)n(C)n2)s1 | > 46.1
CCNC(=S)NNC(=O)c1nn(C)c(C)c1Cl | > 41.4
CC(CC(=O)NCCc1ccc(S(N)(=O)=O)cc1)c1ccccc1 (configuration not stated) | > 52
NC(=O)COn1c(SCC(N)=O)nc2ccccc2c1=O | > 46.2
N#Cc1ccccc1OCC(=O)OCC(=O)c1c[nH]c2ccccc12 | 6.4 (≈ 19.1 µM)
O=C(NCc1cccnc1)c1ccc(NS(=O)(=O)c2cccc([N+](=O)[O-])c2)cc1 | > 61.9
N/C(=N\OC(=O)c1ccc(Cl)c([N+](=O)[O-])c1)c1ccccc1 | 7.9 (≈ 24.7 µM)
O=C(O)c1nccnc1C(=O)Nc1ccc(Cl)cc1Cl | > 46.8
CCOC(=O)C1CCN(CCC(=O)Nc2ccc(C)c(C)c2)CC1 | > 49.9
CC(C)CC(=O)C1=C(O)C(=O)N(Cc2ccccc2)C1c1ccccc1 (configuration not stated) | 47.3 (≈ 135 µM)
CCC(CO)n1c(=S)[nH]c2cc(OC)c(OC)cc2c1=O (configuration not stated) | > 46.6
Cc1ccc(C(=O)NCCc2c[nH]c3ccccc23)c(C)c1 | 23 (≈ 78.7 µM)

SMILES | solubility kinetic [µg/mL]
CN(Cc1ccccc1C#N)S(=O)(=O)c1cccs1 | 34.8 (≈ 119 µM)
CCN(CC)C(=O)c1ccc(O)c(OC)c1 | > 33.5
C=CCn1c(O)c(C(CC)=Nc2ccc(N(C)C)cc2)c(=O)[nH]c1=O | 1.5 (≈ 4.38 µM)
O=C(Cn1c(CO)nc2ccccc21)NCCc1ccc(F)cc1 | 36.7 (≈ 112 µM)
CNc1ccc(Br)cc1C(O)c1ccccc1 (configuration not stated) | 34.7 (≈ 119 µM)
O=C1C2CCCCN2C(=O)N1CCCCN1CCN(c2cccc(Cl)c2)CC1 (configuration not stated) | 54.2 (≈ 134 µM)
Cc1ccc(S(=O)(=O)NCc2ccc3c(c2)OCO3)cc1C | 5 (≈ 15.7 µM)
c1ccc2oc(-c3csc(N4CCOCC4)n3)cc2c1 | 4.7 (≈ 16.4 µM)
COc1cc(NC(=S)N(C)C)c(OC)cc1Cl | > 41.2
CCCCOC(=O)C1=C(C)NC(=O)NC1c1ccccc1 (configuration not stated) | 13.5 (≈ 46.8 µM)
Cc1cc(C)c(C#N)c(SCc2ccc([N+](=O)[O-])cc2)n1 | < 0.2
CC(=O)Nc1cccc(NC(=O)CCNC(=O)c2ccccc2)c1 | > 48.8
Cc1cc(Cl)ccc1NC(=O)CN1C(=O)NC2(CCCC2)C1=O | > 50.4
COc1ccc(CC(=O)Nc2cc(Cl)ccc2C(=O)O)cc1 | > 48
O=C(CSc1nc2c(c(=O)[nH]1)CCC2)Nc1cccc(F)c1 | 12.2 (≈ 38.2 µM)
O=C(Nc1ccccc1N1CCOCC1)c1ccco1 | 35 (≈ 129 µM)
CCCc1ccc(S(=O)(=O)NCC2CCCN2CC)cc1 (configuration not stated) | 31 (≈ 99.9 µM)
CCCCc1ccc(NC(=S)N2CCCC2)cc1 | 9.2 (≈ 35.1 µM)
CC1(C)CC(=O)C(C2=NC3(CCCCC3)Cc3ccccc32)=C(O)C1 | > 50.6
O=CC1=C(N2CCOCC2)/C(=C\c2ccccc2)CC1 | 32.2 (≈ 120 µM)
Cc1ccc(C(=O)N2CCOCC2)c(F)c1F | 33.9 (≈ 141 µM)
Cc1sc2nc(CC(=O)N3CCCC3)[nH]c(=O)c2c1C | > 43.7
O=c1[nH]c2ccccc2c2oc(CCl)nc12 | 12.5 (≈ 53.3 µM)
COc1ccc(C(=O)CNc2ccccc2Br)cc1 | 5.6 (≈ 17.5 µM)

SMILES | solubility kinetic [µg/mL]
CC(=O)N1CCN(c2ccc(NC(=O)c3ccc(Cl)cc3)cc2)CC1 | 1 (≈ 2.79 µM)
CC(C)c1ccc(NC(=O)Nc2cnccn2)cc1 | 3.9 (≈ 15.2 µM)
Cc1noc(C)c1C(=O)Nc1ccc2ccccc2c1 | 11.2 (≈ 42.1 µM)
CC1CN(C(=O)c2cc3cc(F)ccc3[nH]2)CC(C)O1 (configuration not stated) | 32.2 (≈ 117 µM)
Cc1cc(C)c(C)c(S(=O)(=O)N2CCC(C(=O)OCC(=O)NC3CCS(=O)(=O)C3)CC2)c1C (configuration not stated) | > 75.1
O=C(O)c1ccccc1-c1ccccc1C(=O)Nc1ccc2c(c1)CCC2 | > 53.6
COc1ccc(CNC(=S)NCc2ccc(F)cc2)cc1 | 9.5 (≈ 31.2 µM)
Cc1ccc(NC(=O)C(=O)NCCCN2CCOCC2)c(C)c1 | > 47.9
CCc1cc(=O)oc2cc(OCC(=O)N3CCC(C(N)=O)CC3)ccc12 | > 53.8
O=C(CNC(=O)c1ccc(Br)o1)NCc1cccc(Cl)c1 | 55.5 (≈ 149 µM)
CCOC(=O)c1cccc(NC(=S)NC(=O)c2cccnc2)c1 | 8.1 (≈ 24.6 µM)
O=C(OCC(=O)N1CCCCCC1)c1ccc(Br)c(S(=O)(=O)N2CCOCC2)c1 | > 73.4
COc1ccc(NC(=O)CN2C(=O)C(=O)N(C3CCCC3)C2=O)c(OC)c1 | > 56.3
COc1ccc(-n2cnc3sccc3c2=O)cc1 | 35.8 (≈ 139 µM)
COC(=O)c1ccc(/C=C2\Oc3ccccc3NC2=O)cc1 | 1 (≈ 3.39 µM)
CCC(CC)N1CCN(C(=O)c2cc(OC)c(OC)c(OC)c2)CC1 | > 52.6
Cn1cc(C(C[N+](=O)[O-])c2ccccc2)c2ccccc21 (configuration not stated) | 2.6 (≈ 9.27 µM)
CCc1cccc(NC(=O)CC2SC(N3CCCC3)=NC2=O)c1 (configuration not stated) | > 49.7
CCC(=O)c1ccc2c(c1)N(CCCN(C)C)c1ccccc1S2.Cl | > 56.5
CCn1c(SCC(=O)OC(C)C)nnc1-c1ccccc1OC | > 50.3
Cc1ccc2[nH]c(CNC(=O)c3ccccc3F)cc2c1 | 5.4 (≈ 19.1 µM)
CCOc1ccc(NC(=O)C2C(c3ccccc3)C2(Cl)Cl)cc1 (configuration not stated) | < 0.8
NC(=O)C1CCN(S(=O)(=O)c2ccccc2[N+](=O)[O-])CC1 | 39.8 (≈ 127 µM)
CCC(C)c1ccc(S(=O)(=O)N2CCN(c3ccccn3)CC2)cc1 (configuration not stated) | < 0.3

SMILES | solubility kinetic [µg/mL]
O=C1c2ccccc2NC(c2ccc(Br)s2)N1O (configuration not stated) | 37.5 (≈ 115 µM)
Cc1cnc(C(=O)OCc2cc(=O)n3c(C)cccc3n2)cn1 | > 46.5
CCOC(=O)c1ccc(NC(=S)NCc2cccnc2)cc1 | > 47.3
CC(=O)NC1(C(F)(F)F)C(=O)Nc2c1c(=O)[nH]c(=O)n2CC(C)C (configuration not stated) | < 0.2
OC(CN1CCCCC1)c1c[nH]c2ccccc12 (configuration not stated) | > 36.7
Cn1ncc([N+](=O)[O-])c1C(=O)NC1CCCCC1 | > 37.8
CCOC(=O)C1CCN(C(=O)c2ccc(OC3CCN(C(=O)COC)CC3)cc2)CC1 | 45 (≈ 104 µM)
Cc1ccc(NC(=O)CCCNC(=O)c2ccc(Cl)cc2)nc1 | 4.1 (≈ 12.4 µM)
Fc1ccc(CO/N=C2\CCCc3nonc32)cc1 | 3 (≈ 11.5 µM)
Cc1ccc(N2CCN(S(=O)(=O)N3CCCCC3)CC2)cc1C | 1.8 (≈ 5.33 µM)
O=c1[nH]cnc2c1c(-c1ccccc1)cn2-c1ccccc1 | < 0.2
CCc1ccc(C(=O)COC(=O)c2cnc(C)cn2)cc1 | > 42.6
COc1ccc2cc(C(=O)N3CCN(c4ccc(F)cc4)CC3)[nH]c2c1 | 1.6 (≈ 4.53 µM)
CCCCOc1ccc(CSC(=N)N)cc1Cl.Cl | 40.6
COc1cc(/C=C(\C#N)C(=O)NC(C)C)cc(Cl)c1O | 28.4 (≈ 96.4 µM)
O=[N+]([O-])c1sccc1CS(=O)(=O)c1ccccc1 | 20.6 (≈ 72.7 µM)
CCNC(=O)Cn1cc(C(F)(F)F)cc(Cl)c1=O | > 42.4
Cc1ccc(-c2nc3ncccc3o2)cc1N | > 33.8
COc1c(Cl)cccc1-c1cn2ccccc2n1 | 2 (≈ 7.73 µM)
Cc1cc(=O)oc2cc(OCC(=O)N3CCN(Cc4ccccc4)CC3)ccc12 | 56.7 (≈ 144 µM)
COc1cccc(NC(=O)CN(C)C(=O)c2cccc(S(=O)(=O)N3CC4(C)CC3CC(C)(C)C4)c2)c1 (configuration not stated) | 2 (≈ 3.89 µM)
O=C(O)COCC(=O)NCc1nc(-c2ccc(C(F)(F)F)cc2)no1 | > 53.9
CC1CCN(CC(=O)Nc2ccc(Cl)cc2[N+](=O)[O-])CC1 | 0.9 (≈ 2.89 µM)
CC(C)N=C(Nc1cccnc1)c1ccccc1 | > 35.9

SMILES | solubility kinetic [µg/mL]
Cc1ccc(C(C)C)cc1S(=O)(=O)Nc1cccnc1 | 3.5 (≈ 12.1 µM)
CCc1ccc(C(=O)Nc2nc3ccccc3[nH]2)cc1 | 0.5 (≈ 1.88 µM)
Cc1cccc(NC(=O)CSCC(=O)NCc2ccco2)c1 | > 47.8
O=C1CSC(c2cccc([N+](=O)[O-])c2)N1C1CC2CCC1C2 (configuration not stated) | 11.2 (≈ 35.2 µM)
COC(=O)c1sccc1-n1cccc1C(=O)C(=O)N1CCOCC1 | 46.3 (≈ 133 µM)
CC1CC(C#N)N(N(C)C)C1=C(C#N)C#N (configuration not stated) | > 32.3
COC(=O)c1cccc(NC(=O)c2cnccn2)c1 | 9.5 (≈ 36.9 µM)
CCS(=O)(=O)N1CCC(C(=O)NCc2ccc3c(c2)OCO3)CC1 | > 53.2
COCCNC(=S)Nc1ccccn1 | > 31.7
CS(=O)(=O)N1CCC(CO)(Cc2ccccc2C(F)(F)F)CC1 | 48.7 (≈ 139 µM)
CCN(CC)C(=O)CN1C(=O)c2cccc3cccc1c23 | > 42.4
Cc1cc(NC(=O)CC(C)C)c(=O)n(Cc2ccccc2F)c1 | 37.3 (≈ 118 µM)
N#Cc1cc2cc3c(cc2nc1SCC(=O)N1CCOCC1)OCO3 | 4.9 (≈ 13.7 µM)
O=c1[nH]c2ccccc2nc1-c1ccc(Cl)cc1 | < 0.3
COc1ccccc1NC(=O)COC(=O)c1[nH]c(=O)[nH]c(=O)c1N | > 50.1
O=C(Nc1nc2ccc([N+](=O)[O-])cc2s1)c1ccncc1 | 1.9 (≈ 6.33 µM)
CSc1cc(CS(=O)(=O)c2ccccc2)nc(-c2ccccc2)n1 | < 0.4
CCC(C)NC(=O)CN1C(=O)C(CC)Sc2ccccc21 (configuration not stated) | > 46
COc1ccc(OC)c(NC(=O)CCCC(=O)NC2CCCCC2)c1 | > 52.3
Cc1ccc(CSCC(=O)Nc2ccccc2C(=O)O)cc1 | > 47.3
O=C(COC(=O)C1CCC1)Nc1ccc(Cl)cn1 | > 40.3
